Experimental data published in PubChem BioAssay (NCI).
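Five concentrations, 48 hours, 96-well plates. GI50 marks 50% less growth. TGI marks complete inhibition of growth.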

Assays:
Experiment in all cases: NCI tumour cell line growth inhibition, 48 h; in the data active = GI50 below about 0.43 µM; inactive = the rest
DU-145 prostate = system: DU-145 prostate
XF 498 CNS = system: XF 498 CNS
MCF7 breast = system: MCF7 breast
HCC-2998 colon = system: HCC-2998 colon
OVCAR-8 ovarian = system: OVCAR-8 ovarian
CCRF-CEM leukemia = system: CCRF-CEM leukemia
NCI-H23 lung = system: NCI-H23 lung
SK-OV-3 ovarian = system: SK-OV-3 ovarian
HOP-18 NSCLC = system: HOP-18 NSCLC
DMS 273 small cell lung = system: DMS 273 small cell lung
SNB-19 CNS = system: SNB-19 CNS
DMS 114 small cell lung = system: DMS 114 small cell lung
HOP-92 NSCLC = system: HOP-92 NSCLC
KM12 colon = system: KM12 colon
A498 renal = system: A498 renal
TK-10 renal = system: TK-10 renal
NCI-H460 lung = system: NCI-H460 lung
T-47D breast = system: T-47D breast
SK-MEL-5 melanoma = system: SK-MEL-5 melanoma
M14 melanoma = system: M14 melanoma
SNB-78 CNS = system: SNB-78 CNS
MDA-MB-231 breast = system: MDA-MB-231 breast
PC-3 prostate = system: PC-3 prostate
U251 CNS = system: U251 CNS
RXF 393 renal = system: RXF 393 renal
SN12C renal = system: SN12C renal
MOLT-4 leukemia = system: MOLT-4 leukemia
MALME-3M melanoma = system: MALME-3M melanoma
SNB-75 CNS = system: SNB-75 CNS
M19-MEL melanoma = system: M19-MEL melanoma
BT-549 breast = system: BT-549 breast
UACC-257 melanoma = system: UACC-257 melanoma
SW-620 colon = system: SW-620 colon
HL-60(TB) leukemia = system: HL-60(TB) leukemia
OVCAR-5 ovarian = system: OVCAR-5 ovarian
CAKI-1 renal = system: CAKI-1 renal
SK-MEL-28 melanoma = system: SK-MEL-28 melanoma
RPMI-8226 leukemia = system: RPMI-8226 leukemia
MDA-N = system: MDA-N
UACC-62 melanoma = system: UACC-62 melanoma
MDA-MB-435 = system: MDA-MB-435
SK-MEL-2 melanoma = system: SK-MEL-2 melanoma
SF-268 CNS = system: SF-268 CNS
SF-539 CNS = system: SF-539 CNS
LOX IMVI melanoma = system: LOX IMVI melanoma
P388/ADR leukemia = system: P388/ADR leukemia
NCI-H226 lung = system: NCI-H226 lung
HOP-62 NSCLC = system: HOP-62 NSCLC
HT29 colon = system: HT29 colon
NCI/ADR-RES ovarian = system: NCI/ADR-RES ovarian
SF-295 CNS = system: SF-295 CNS
UO-31 renal = system: UO-31 renal
SN12K1 renal = system: SN12K1 renal
HCT-116 colon = system: HCT-116 colon
K-562 leukemia = system: K-562 leukemia
OVCAR-3 ovarian = system: OVCAR-3 ovarian
NCI-H522 lung = system: NCI-H522 lung
786-0 renal = system: 786-0 renal
HCT-15 colon = system: HCT-15 colon
COLO 205 colon = system: COLO 205 colon
KM20L2 colon = system: KM20L2 colon
EKVX NSCLC = system: EKVX NSCLC
HS 578T breast = system: HS 578T breast
ACHN renal = system: ACHN renal
A549 NSCLC = system: A549 NSCLC
P388 leukemia = system: P388 leukemia
OVCAR-4 ovarian = system: OVCAR-4 ovarian
IGROV1 ovarian = system: IGROV1 ovarian
DLD-1 colon = system: DLD-1 colon
LXFL 529 NSCLC = system: LXFL 529 NSCLC
RXF-631 renal = system: RXF-631 renal
SR leukemia = system: SR leukemia

O=C(O)CC(NC(=O)CP(=O)(O)O)C(=O)O (stereo unspecified)
> 9870 µM: TGI (A498 renal)
7210 µM: TGI (NCI-H226 lung)
> 8110 µM: TGI (OVCAR-8 ovarian)
7240 µM: TGI (CAKI-1 renal)
824 µM: TGI (LOX IMVI melanoma)
6910 µM: TGI (MOLT-4 leukemia)
9920 µM: TGI (DLD-1 colon)
> 6000 µM: TGI (786-0 renal)
> 8670 µM: TGI (NCI-H460 lung)
> 9020 µM: TGI (DMS 273 small cell lung) | TGI (SN12C renal)
inactive: GI50 (SNB-19 CNS) 72.6 µM | GI50 (KM12 colon) 95.5 µM | GI50 (NCI-H460 lung) 79.5 µM | GI50 (RXF 393 renal) 90.5 µM | GI50 (UACC-257 melanoma) 3150 µM | GI50 (CAKI-1 renal) 272 µM | GI50 (SK-MEL-28 melanoma) 389 µM | GI50 (MDA-N) 54.1 µM | GI50 (MDA-MB-435) 48.8 µM | GI50 (SF-268 CNS) 95.8 µM | GI50 (SF-539 CNS) 89.5 µM | GI50 (HCT-116 colon) 54.6 µM | GI50 (NCI-H522 lung) 78.3 µM | GI50 (786-0 renal) 71 µM | GI50 (HS 578T breast) 74.5 µM | GI50 (A549 NSCLC) 95.7 µM
> 8470 µM: TGI (MALME-3M melanoma)
2380 µM: TGI (HOP-92 NSCLC)
6640 µM: TGI (UACC-62 melanoma)
> 5860 µM: TGI (P388 leukemia)
> 10000 µM: TGI (DU-145 prostate) | TGI (MCF7 breast) | TGI (HCC-2998 colon) | TGI (CCRF-CEM leukemia) | TGI (NCI-H23 lung) | TGI (SNB-19 CNS) | TGI (DMS 114 small cell lung) | TGI (KM12 colon) | TGI (TK-10 renal) | TGI (T-47D breast) | TGI (SK-MEL-5 melanoma) | TGI (M14 melanoma) | TGI (SNB-78 CNS) | TGI (MDA-MB-231 breast) | TGI (PC-3 prostate) | TGI (U251 CNS) | TGI (RXF 393 renal) | TGI (SNB-75 CNS) | TGI (M19-MEL melanoma) | TGI (BT-549 breast) | TGI (UACC-257 melanoma) | TGI (SW-620 colon) | TGI (HL-60(TB) leukemia) | TGI (OVCAR-5 ovarian) | TGI (SK-MEL-28 melanoma) | TGI (RPMI-8226 leukemia) | TGI (MDA-N) | TGI (MDA-MB-435) | TGI (SK-MEL-2 melanoma) | TGI (SF-268 CNS) | TGI (SF-539 CNS) | TGI (HT29 colon) | TGI (NCI/ADR-RES ovarian) | TGI (SF-295 CNS) | TGI (UO-31 renal) | TGI (SN12K1 renal) | TGI (HCT-116 colon) | TGI (K-562 leukemia) | TGI (OVCAR-3 ovarian) | TGI (COLO 205 colon) | TGI (KM20L2 colon) | TGI (HS 578T breast) | TGI (ACHN renal) | TGI (OVCAR-4 ovarian)
9910 µM: TGI (NCI-H522 lung)
> 9690 µM: TGI (HOP-18 NSCLC)
4250 µM: TGI (A549 NSCLC)
> 3160 µM: TGI (XF 498 CNS)
9160 µM: TGI (HCT-15 colon)
> 8280 µM: TGI (IGROV1 ovarian)
> 7930 µM: TGI (SK-OV-3 ovarian)
> 8350 µM: TGI (P388/ADR leukemia)
7860 µM: TGI (EKVX NSCLC)
3760 µM: TGI (HOP-62 NSCLC)

O=C1OCC2C1C1c3ccccc3C(O)c3ccccc3C21 (stereo unspecified)
> 100 µM: TGI (XF 498 CNS) | TGI (HCC-2998 colon) | TGI (OVCAR-8 ovarian) | TGI (CCRF-CEM leukemia) | TGI (NCI-H23 lung) | TGI (SK-OV-3 ovarian) | TGI (HOP-18 NSCLC) | TGI (DMS 114 small cell lung) | TGI (HOP-92 NSCLC) | TGI (KM12 colon) | TGI (A498 renal) | TGI (LXFL 529 NSCLC) | TGI (TK-10 renal) | TGI (NCI-H460 lung) | TGI (SK-MEL-5 melanoma) | TGI (M14 melanoma) | TGI (SNB-78 CNS) | TGI (U251 CNS) | TGI (RXF 393 renal) | TGI (SN12C renal) | TGI (MOLT-4 leukemia) | TGI (MALME-3M melanoma) | TGI (SNB-75 CNS) | TGI (M19-MEL melanoma) | TGI (UACC-257 melanoma) | TGI (SW-620 colon) | TGI (HL-60(TB) leukemia) | TGI (OVCAR-5 ovarian) | TGI (CAKI-1 renal) | TGI (SK-MEL-28 melanoma) | TGI (RPMI-8226 leukemia) | TGI (UACC-62 melanoma) | TGI (SK-MEL-2 melanoma) | TGI (SF-268 CNS) | TGI (SF-539 CNS) | TGI (LOX IMVI melanoma) | TGI (NCI-H226 lung) | TGI (HOP-62 NSCLC) | TGI (HT29 colon) | TGI (SF-295 CNS) | TGI (UO-31 renal) | TGI (RXF-631 renal) | TGI (HCT-116 colon) | TGI (K-562 leukemia) | TGI (OVCAR-3 ovarian) | TGI (786-0 renal) | TGI (HCT-15 colon) | TGI (COLO 205 colon) | TGI (KM20L2 colon) | TGI (EKVX NSCLC) | TGI (ACHN renal) | TGI (A549 NSCLC) | TGI (OVCAR-4 ovarian) | TGI (IGROV1 ovarian) | TGI (DLD-1 colon) | TGI (SR leukemia)
